Earlier results on 1 compound are cited in patent US20060106004A1, “Unique methods and formulations of bio-identical sex steroids for the treatment of pathophysiologic aberrations of menopause” (priority 2004, published 2006).

The structures appear in SMILES notation.

In one data set the test system is metastatic breast cancer. The settings on record: doses from 2.5 to 15 mg/day.
Another data set has as its system mammary carcinoma. The settings on record: following radiation or carcinogenesis.
In another data set the test system is uterus. The settings on record: ovariectomized rats.

`C[C@]12CC[C@@H]3c4ccc(O)cc4CC[C@H]3[C@@H]1C[C@@H](O)[C@@H]2O` [Estriol, estriol]: the “proportion of women with arrested growth and remission of metastatic lesions” value with metastatic breast cancer is recorded as “Over ⅓”. Besides, the “reduction of mammary carcinoma rates” value in the data set with mammary carcinoma is on record as 80%. Besides, the “stimulation of uterine weights” value in the data set on uterus is recorded as “does not significantly stimulate uterine weights”.
